Source: US20190327974A1, “SYNERGISTS FOR IMPROVED PESTICIDES” (priority 2017, published 2019)

How the values were obtained:
[1] = biological target: T1, wild-type LcαE7 (αE7 carboxylesterase) (Lucilia cuprina, UniProt Q25252); assay: Inhibition of wildtype αE7 (competition assay, hydrolysis of 4-nitrophenol butyrate), dose-response curves of FIG. 7; format: biochemical; conditions: 95% confidence interval in brackets; recombinant His6-tagged enzyme from E. coli, 0.5 nM; 4-nitrophenol butyrate 15 μM (= KM); room temperature, pH 7.5, 405 nm; three technical replicates
T1 sequence (Q25252 1-570): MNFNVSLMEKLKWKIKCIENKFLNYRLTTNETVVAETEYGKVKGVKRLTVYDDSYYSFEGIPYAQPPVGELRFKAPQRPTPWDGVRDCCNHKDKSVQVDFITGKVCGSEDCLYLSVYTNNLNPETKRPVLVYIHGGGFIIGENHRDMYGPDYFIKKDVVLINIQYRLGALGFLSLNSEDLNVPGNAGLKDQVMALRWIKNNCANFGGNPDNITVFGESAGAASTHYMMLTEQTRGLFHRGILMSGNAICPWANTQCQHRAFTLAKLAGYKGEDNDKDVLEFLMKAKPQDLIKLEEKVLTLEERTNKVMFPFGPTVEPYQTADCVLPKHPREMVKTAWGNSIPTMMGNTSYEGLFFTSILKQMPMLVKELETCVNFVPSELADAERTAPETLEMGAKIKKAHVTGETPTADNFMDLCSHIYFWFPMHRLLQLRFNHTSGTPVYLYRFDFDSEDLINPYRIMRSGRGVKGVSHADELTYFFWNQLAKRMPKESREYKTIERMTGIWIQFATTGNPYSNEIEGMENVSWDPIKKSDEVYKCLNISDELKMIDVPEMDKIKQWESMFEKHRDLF
Description: (§1) FIG. 7 presents dose-response curves for the inhibition of wildtype αE7. Inhibition of the hydrolysis of […] was determined for phenylboronic acid (PBA) and compounds 1-5 and 3.1-3.12. Three (technical) replicate measurements of enzyme activity were performed for each concentration of boronic acid. The concentration of boronic acid required to inhibit 50% of activity (IC50) was determined by fitting a sigmoidal sigmoidal dose-response curve to plots of percentage inhibition. The curve was constrained to 0 (bottom) and 100% (top) inhibition with a variable Hill slope. […]
Wild-type LcαE7 was heterologously expressed in Escherichia coli and purified using metal ion affinity and size exclusion chromatography. The potency of the boronic acids was determined by enzymatic assays of recombinant LcαE7 with the model carboxylester substrate 4-nitrophenol butyrate.
(§2) His6-tagged proteins were expressed in BL21(DE3) E. coli (Invitrogen) at 26° C. for 18 hours. Cells were collected by centrifugation, resuspended in lysis buffer (300 mM NaCl, 10 mM imidazole, 50 mM HEPES pH 7.5) and lysed by sonication. Cell debris was pelleted by centrifugation and the soluble fraction was loaded onto a HisTrap-HP Ni-Sepharose column (GE Healthcare). Bound protein was eluted with lysis buffer supplemented with 300 mM imidazole. Fractions containing the eluted protein were concentrated with a 30 kDa molecular mass cutoff centrifuge concentrator (Amicon) and loaded onto a HiLoad 26/60 Superdex-200 size-exclusion column (GE Healthcare) pre-equilibrated with 150 mM NaCl, 20 mM HEPES pH 7.5. Eluted fractions containing the monomeric protein were pooled for enzyme inhibition assays or crystallization. Protein concentration was determined by measuring the absorbance at 280 nm with an extinction coefficient calculated using the Protparam online server (Gasteiger, E. et al. Protein identification and analysis tools on the ExPASy server. Proteomics Protoc. Handb. 571-607 (2005). doi:10.1385/1-59259-890-0:571).
(§3) Inhibition of wild-type αE7 and the Gly137Asp αE7 variant was determined by a competition assay between the native-substrate analogue 4-nitrophenol butyrate (Sigma) and the boronic acid compounds. Initially, the Michalis constant (KM) with 4-nitrophenol butyrate was measured for both enzymes to determine an appropriate concentration of substrate for use in the competition assays. Formation of the 4-nitrophenolate product of hydrolysis was monitored at 405 nm in the presence of enzyme and eight different concentrations of substrate. 4-nitrophenol butyrate was prepared in methanol to 100 mM and serially diluted 1-in-2 to achieve concentrations from 100 mM to 0.8 mM. Enzyme stocks were prepared in 4 mg/ml bovine serum albumin (Sigma) to maintain enzyme stability. Reactions were prepared by pipetting 178 μl assay buffer (100 mM NaCl, 20 mM HEPES pH 7.5) and 2 μl substrate (final concentrations of 1000 to 8 μM) into 300 μl wells of a 96-well plate. The reaction was initiated by the addition of 20 μl enzyme (final concentration 2.5 nM for wildtype αE7 and 4 nM for Gly137Asp αE7). Product formation was monitored for four minutes at room temperature using an Epoch microplate spectrophotometer (BioTek) and the initial rates of ester hydrolysis were determined by linear regression using GraphPad Prism. The Michalis constant was determined by fitting the initial rates to the Michalis-Menton equation (FIG. 10).
(§4) Enzyme inhibition with the boronic acid compounds was determined by assaying the initial rate of 4-nitrophenol butyrate hydrolysis in the presence of either neat DMSO or the boronic acid compounds in DMSO. Compounds were prepared by serially diluting 1-in-3 an initial 10 mM stock to achieve concentrations from 10 mM to 2 nM. Reactions were prepared by pipetting 178 μl assay buffer supplemented with substrate to a final concentration equal to the KM of the enzyme (15 μM for wildtype αE7 and 250 μM for Gly137Asp αE7) into wells of a 96-well plate. […]

[2] = biological target: T2, Gly137Asp LcαE7 (Gly137Asp variant of αE7 carboxylesterase) (Lucilia cuprina, UniProt Q25252, G137D); assay: Inhibition of Gly137Asp αE7 (competition assay, hydrolysis of 4-nitrophenol butyrate), dose-response curves of FIG. 8; format: biochemical
T2 construct: GenBank number is of the wild-type parent
T2 sequence (Q25252 entry or part of it G137D): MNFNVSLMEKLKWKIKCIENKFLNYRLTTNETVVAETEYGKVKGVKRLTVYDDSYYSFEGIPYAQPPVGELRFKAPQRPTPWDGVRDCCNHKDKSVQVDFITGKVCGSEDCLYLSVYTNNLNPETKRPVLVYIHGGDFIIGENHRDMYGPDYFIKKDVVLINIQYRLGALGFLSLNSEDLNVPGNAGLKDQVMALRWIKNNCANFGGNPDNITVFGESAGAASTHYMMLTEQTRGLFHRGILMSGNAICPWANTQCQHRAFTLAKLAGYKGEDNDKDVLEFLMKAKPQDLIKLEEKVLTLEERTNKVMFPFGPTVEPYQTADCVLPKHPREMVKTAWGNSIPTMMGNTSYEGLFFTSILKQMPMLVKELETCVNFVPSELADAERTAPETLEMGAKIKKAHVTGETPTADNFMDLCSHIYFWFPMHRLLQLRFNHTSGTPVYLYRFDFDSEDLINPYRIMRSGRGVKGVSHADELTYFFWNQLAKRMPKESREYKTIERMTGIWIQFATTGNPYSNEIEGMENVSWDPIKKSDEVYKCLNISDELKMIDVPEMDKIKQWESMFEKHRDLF
Description: as §1, with “FIG. 8” for “FIG. 7”, “of Glyl37Asp” for “of wildtype”, “for phenyl boronic” for “for phenylboronic”, “sigmoidal” for “sigmoidal sigmoidal”
as §2, §3
as §4, with “plate. 2 μl neat DMSO or 2 μl serially diluted inhibitor (final concentrations of 100 μM to 20 pM) were added to the wells. The reaction was initiated by the addition of 20 μl enzyme (final concentration 0.5 nM for wildtype αE7 and 10 nM for Glyl37Asp αE7).” for “plate.”

Structure (SMILES): Cc1ccc(B(O)O)cc1Br [Compound 1]
- IC50 [1]: 25 nM
- IC50 [2]: 95 nM

Structure (SMILES): Cc1ccc(B(O)O)cc1OCc1ccccc1 [Compound 2]
- IC50 [1]: 6.1 nM
- IC50 [2]: 57 nM

Structure (SMILES): OB(O)c1cc(Br)cc(N2CCOCC2)c1 [Compound 3.1]
- IC50 [1]: 1.5 nM
- IC50 [2]: 840 nM

Structure (SMILES): OB(O)c1cc(Br)cc(N2CCCCC2)c1 [Compound 3.3]
- IC50 [1]: 0.97 nM
- IC50 [2]: 290 nM

Structure (SMILES): CN1CCN(c2cc(Br)cc(B(O)O)c2)CC1 [Compound 3.4]
- IC50 [1]: 7.8 nM
- IC50 [2]: 2000 nM

Structure (SMILES): OB(O)c1cc(Br)cc2c1OCC2 [Compound 3.5]
- IC50 [1]: 7.2 nM
- IC50 [2]: 850 nM

Structure (SMILES): OB(O)c1cc(Br)c2ccccc2c1F [Compound 3.6]
- IC50 [1]: 13 nM
- IC50 [2]: 140 nM

Structure (SMILES): CC(C)Oc1cc(Br)cc(B(O)O)c1 [Compound 3.7, 3-Bromo-5-isopropoxyphenylboronic acid]
- IC50 [1]: 0.62 nM
- IC50 [2]: 150 nM

Structure (SMILES): OB(O)c1cc(Br)cc(OC(F)(F)F)c1 [Compound 3.8]
- IC50 [1]: 4.2 nM
- IC50 [2]: 210 nM

Structure (SMILES): OB(O)c1cc(Br)cc(OCc2ccccc2)c1 [Compound 3.9]
- IC50 [1]: 0.91 nM

Structure (SMILES): OB(O)c1cc(Br)cc(Oc2ccccc2)c1 [Compound 3.10, 3-Bromo-5-phenoxyfenylboronic acid]
- IC50 [1]: 0.91 nM

Structure (SMILES): O=C(c1cc(Cl)cc(B(O)O)c1)N1CCOCC1 [Compound 3.11]
- IC50 [1]: 12 nM
- IC50 [2]: 2000 nM

Structure (SMILES): CC(C)(C)Oc1ccc(B(O)O)cc1Br [Compound 3.12]
- IC50 [1]: 25 nM
- IC50 [2]: 1900 nM

Structure (SMILES): OB(O)c1cc(Br)cc(N2CCCC2)c1 [Compound 3]
- IC50 [1]: 0.52 nM
- IC50 [2]: 220 nM

Structure (SMILES): OB(O)c1ccc2ccccc2c1 [Compound 4]
- IC50 [1]: 15 nM
- IC50 [2]: 370 nM

Structure (SMILES): OB(O)c1ccc(OCc2ccccc2F)c(Cl)c1 [Compound 5, 3-Chloro-4(2′-fluorobenzyloxy) phenylboronic acid]
- IC50 [1]: 22.4 nM
- IC50 [2]: 320 nM

Structure (SMILES): OB(O)c1ccccc1 [PBA, phenylboronic acid, reference compound]
- IC50 [1]: 430 nM
- IC50 [2]: 880 nM
